Assay results taken from patent US10894792B2, “Pesticidally active heterocyclic derivatives with sulfur containing substituents” (SYNGENTA PARTICIPATIONS AG, priority 2017, dated 2021).

Tests used:
[1] = tested on: Plutella xylostella; experiment: Activity against Plutella xylostella (diamond back moth), artificial diet; type: in vivo; details: 120 h, application rate of 200 ppm, L2 larvae on artificial diet, 5 days after infestation, read-out: effect in at least one of the two categories (mortality or growth inhibition)
Description: (§1) 24-well microtiter plates with artificial diet were treated with aqueous test solutions prepared from 10′000 ppm DMSO stock solutions by pipetting. After drying, the plates were infested with L2 larvae (10 to 15 per well). The samples were assessed for mortality and growth inhibition in comparison to untreated samples 5 days after infestation.

[2] = tested on: Myzus persicae; experiment: Activity against Myzus persicae (green peach aphid), sprayed sunflower leaf discs; type: in vivo; details: foliar, 144 h, application rate of 200 ppm, aphid population of mixed ages, 6 days after infestation
Description: (§2) Sunflower leaf discs were placed on agar in a 24-well microtiter plate and sprayed with aqueous test solutions prepared from 10′000 ppm DMSO stock solutions. After drying, the leaf discs were infested with an aphid population of mixed ages. The samples were assessed for mortality 6 days after infestation.

[3] = tested on: Myzus persicae; experiment: Activity against Myzus persicae (green peach aphid), roots of pea seedlings in test solution; type: in vivo; details: 144 h, test rate of 24 ppm, roots of infested pea seedlings in test solution, 6 days
Description: Roots of pea seedlings infested with an aphid population of mixed ages were placed directly in the aqueous test solutions prepared from 10′000 DMSO stock solutions. The samples were assessed for mortality 6 days after placing seedlings in test solutions.

[4] = tested on: Frankliniella occidentalis; experiment: Activity against Frankliniella occidentalis (western flower thrips); type: in vivo; details: foliar, 168 h, application rate of 200 ppm, sprayed sunflower leaf discs, population of mixed ages, 7 days after infestation
Description: as §2, with “in” for “in a”, “plates” for “plate”, “[…]” for “10′000 ppm”, “drying” for “drying,”, “a Frankliniella” for “an aphid”, “7” for “6”

[5] = tested on: Bemisia tabaci; experiment: Activity against Bemisia tabaci (cotton white fly); type: in vivo; details: foliar, 144 h, application rate of 200 ppm, sprayed cotton leaf discs, adult white flies, 6 days after incubation
Description: Cotton leaf discs were placed on agar in 24-well microtiter plates and sprayed with aqueous test solutions prepared from 10′000 ppm DMSO stock solutions. After drying the leaf discs were infested with adult white flies. The samples were checked for mortality 6 days after incubation.

[6] = tested on: Euschistus heros; experiment: Activity against Euschistus heros (neotropical brown stink bug); type: in vivo; details: 120 h, application rate of 200 ppm, sprayed soybean leaf, N-2 nymphs, 5 days after infestation, read-out: effect in at least one of the two categories (mortality or growth inhibition)
Description: Soybean leaf on agar in 24-well microtiter plates were sprayed with aqueous test solutions prepared from 10′000 ppm DMSO stock solutions. After drying the leaf were infested with N-2 nymphs. The samples were assessed for mortality and growth inhibition in comparison to untreated samples 5 days after infestation.

[7] = tested on: Diabrotica Balteata; experiment: Activity against Diabrotica balteata (corn root worm); type: in vivo; details: 96 h, application rate of 200 ppm, sprayed maize sprouts, L2 larvae, 4 days after infestation, read-out: effect in at least one of the two categories (mortality or growth inhibition)
Description: as §1, with “Maize sprouts placed onto an agar layer in 24-well” for “24-well”, “plates” for “plates with artificial diet”, “spraying.” for “pipetting.”, “(6” for “(10”, “10” for “15”, “4” for “5”

[8] = tested on: Thrips tabaci; experiment: Activity against Thrips tabaci (onion thrips); type: in vivo; details: foliar, 144 h, application rate of 200 ppm, sprayed sunflower leaf discs, thrips population of mixed ages, 6 days after infestation
Description: as §2, with “in” for “in a”, “plates” for “plate”, “drying” for “drying,”, “a thrips” for “an aphid”

[9] = tested on: Spodoptera littoralis; experiment: Activity against Spodoptera littoralis (Egyptian cotton leaf worm); type: in vivo; details: foliar, 72 h, application rate of 200 ppm, sprayed cotton leaf discs, L1 larvae, 3 days after infestation, read-out: control (mortality, anti-feeding effect, or growth inhibition)
Description: Cotton leaf discs were placed onto agar in 24-well microtiter plates and sprayed with aqueous test solutions prepared from 10′000 ppm DMSO stock solutions. After drying the leaf discs were infested with five L1 larvae. The samples were assessed for mortality, anti-feeding effect, and growth inhibition in comparison to untreated samples 3 days after infestation. Control of Spodoptera littoralis by a test sample is given when at least one of the categories mortality, anti-feedant effect, and growth inhibition is higher than the untreated sample.

melting point [°C]	Structure (SMILES)	percent effect (mortality or growth inhibition) at 200 ppm [1] [%]	mortality at 200 ppm [2] [%]	mortality at 24 ppm [3] [%]	mortality at 200 ppm [4] [%]	mortality at 200 ppm [5] [%]	percent effect (mortality or growth inhibition) at 200 ppm [6] [%]	percent effect (mortality or growth inhibition) at 200 ppm [7] [%]	mortality at 200 ppm [8] [%]	percent control (mortality, anti-feedant effect or growth inhibition) at 200 ppm [9] [%]
	CCS(=O)(=O)c1cc(C(=O)N=S(C)(C)=O)cnc1-c1nc2cc(C(F)(F)F)ncc2n1C [Compound P1, N-[dimethyl(oxo)-λ^6-sulfanylidene]-5-ethylsulfonyl-6-[3-methyl-6-(trifluoromethyl)imidazo[4,5-c]pyridin-2-yl]pyridine-3-carboxamide]	≥ 80	≥ 80	≥ 80	≥ 80	≥ 80	≥ 80	≥ 80	≥ 80	
	CCS(=O)(=O)c1cc(C(=O)N=S(C)(C)=O)cnc1-c1cn2cnc(C(F)(F)F)cc2n1 [Compound P4, N-[dimethyl(oxo)-λ^6-sulfanylidene]-5-ethylsulfonyl-6-[7-(trifluoromethyl)imidazo[1,2-c]pyrimidin-2-yl]pyridine-3-carboxamide]	≥ 80	≥ 80	≥ 80	≥ 80	≥ 80	≥ 80	≥ 80		≥ 80
	CCS(=O)(=O)c1cc(C(=O)N=S(C)(=O)CC)cnc1-c1nc2cc(C(F)(F)F)ncc2n1C (stereo not shown) [Compound P8, N-(ethyl-methyl-oxo-λ^6-sulfanylidene)-5-ethylsulfonyl-6-[3-methyl-6-(trifluoromethyl)imidazo[4,5-c]pyridin-2-yl]pyridine-3-carboxamide]	≥ 80	≥ 80	≥ 80	≥ 80	≥ 80	≥ 80	≥ 80		≥ 80
	CCS(=O)(=O)c1cc(C(=O)N=S2(=O)CCC2)cnc1-c1cn2cnc(C(F)(F)F)cc2n1 [Compound P13, 5-ethylsulfonyl-N-(1-oxothietan-1-ylidene)-6-[7-(trifluoromethyl)imidazo[1,2-c]pyrimidin-2-yl]pyridine-3-carboxamide]	≥ 80	≥ 80	≥ 80			≥ 80	≥ 80		≥ 80
	CCS(=O)(=O)c1cc(C(=O)N=S(C)(C)=O)cnc1-c1nc2cc(C(F)(F)F)cnc2n1C [Compound P14, N-[dimethyl(oxo)-λ^6-sulfanylidene]-5-ethylsulfonyl-6-[3-methyl-6-(trifluoromethyl)imidazo[4,5-b]pyridin-2-yl]pyridine-3-carboxamide]	≥ 80	≥ 80	≥ 80	≥ 80	≥ 80	≥ 80	≥ 80		≥ 80
	CCS(=O)(=O)c1cc(C(=O)N=S(C)(=O)CC)cnc1-c1nc2cc(C(F)(F)F)cnc2n1C (stereo not shown) [Compound P15, N-(ethyl-methyl-oxo-λ^6-sulfanylidene)-5-ethylsulfonyl-6-[3-methyl-6-(trifluoromethyl)imidazo[4,5-b]pyridin-2-yl]pyridine-3-carboxamide]	≥ 80	≥ 80	≥ 80	≥ 80	≥ 80	≥ 80	≥ 80		≥ 80
	CCS(=O)(=O)c1cc(C(=O)N=S2(=O)CCC2)cnc1-c1nc2cc(C(F)(F)F)cnc2n1C [Compound P16, 5-ethylsulfonyl-6-[3-methyl-6-(trifluoromethyl)imidazo[4,5-b]pyridin-2-yl]-N-(1-oxothietan-1-ylidene)pyridine-3-carboxamide]	≥ 80	≥ 80	≥ 80		≥ 80	≥ 80	≥ 80		≥ 80
216 to 219	CCS(=O)(=O)c1cc(C(=O)N=S(C)(=O)CC)cnc1-n1cc2cnc(C(F)(F)F)cc2n1 (stereo not shown) [Compound P25, N-(ethyl-methyl-oxo-λ^6-sulfanylidene)-5-ethylsulfonyl-6-[6-(trifluoromethyl)pyrazolo[4,3-c]pyridin-2-yl]pyridine-3-carboxamide]									
185 to 189	CCS(=O)(=O)c1cc(C(=O)N=S(=O)(CC)CC)cnc1-n1cc2cnc(C(F)(F)F)cc2n1 [Compound P26, N-[diethyl(oxo)-λ^6-sulfanylidene]-5-ethylsulfonyl-6-[6-(trifluoromethyl)pyrazolo[4,3-c]pyridin-2-yl]pyridine-3-carboxamide]									
